Measured values as given in patent publication US20250049036A1 (priority 2021, published 2025).

Columns and labels:
[1] = system: Fusarium culmorum; assay: Fusarium culmorum test on wheat, preventive, greenhouse; type: in vivo; details: preventive spray on wheat, inoculated one day after treatment, read-out: control (efficacy, disease severity) compared to the untreated check
Description: The respective compound was dissolved in 2% dimethyl sulfoxide/acetone and then mixed with water containing an emulsifier to a calibrated spray volume of 30 mL. Each spray solution was poured into a spray bottle for further application.
To test the preventive activity of a compound, healthy young wheat plants, raised in the greenhouse, were sprayed with the active compound preparation at the stated application rate inside the spray cabinets using hollow cone nozzles. One day after the treatment, the plants were inoculated with a spore suspension containing 2×10^6 Fusarium culmorum inoculum. The inoculated plants were then kept in a greenhouse chamber at 24° C. temperature and 80-90% relative humidity for disease expression.
A visual assessment of the compound's performance was carried out by rating the disease severity (0 100% scale) on treated plants 3, 7, 10 and 15 days after application. Efficacy (% control) of the compound was calculated by comparing the disease rating in the treatment with the one of the untreated control. The treated plants were also assessed for plant damage by recording symptoms like necrosis, chlorosis and stunting.

[2] = system: Botrytis cinerea; assay: Botrytis cinerea test on tomato, preventive, greenhouse; type: in vivo; details: preventive spray on bean/chili plants (heading: tomato), inoculated one day after treatment, read-out: control (efficacy, disease severity) compared to the untreated check
[3] = system: Phytophthora infestans; assay: microbe, parasite or virus in culture; type: cell-based; details: 168 h, read-out: control compared to the untreated check
[4] = system: Botrytis cinerea; assay: Botrytis cinerea (gray mold) mycelial radial growth on potato dextrose agar; type: cell-based; details: 168 h, 22° C., seven days, read-out: control compared to the untreated check
Procedure, shortened: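 Compounds in 0.3% DMSO were mixed into potato dextrose agar, and plates were seeded with 5 mm mycelial discs from actively growing virulent culture. After seven days at 22 °C and 90% relative humidity, radial growth was measured relative to untreated control.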

[5] = system: Botrytis cinerea; assay: Botrytis cinerea liq. (BOTRCI) spore growth inhibition in liquid medium, 96-well microtiter plate, OD 405 nm; type: cell-based; details: spore suspension in YBA liquid medium, 22° C., 5-6 days, OD at 405 nm, read-out: control compared to the untreated check
Procedure, shortened: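 Spore suspension of B. cinerea (10^4 spores/ml) in YBA liquid medium mixed 1:1 with compound diluted from DMSO. Incubated at 22° C. for 5-6 days. Growth read as OD 405 nm; percent inhibition derived from treatment, untreated-control and blank readings.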

[6] = system: Phakopsora pachyrhizi; assay: Phakopsora pachyrhizi test on soybean, preventive, greenhouse; type: in vivo; details: preventive spray on soybean, inoculated one day after treatment, read-out: control (efficacy, disease severity) compared to the untreated check
Procedure, shortened: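 Preventive protocol: plants inoculated with a 2×10^5 P. pachyrhizi conidial suspension one day after spray application at the stated rate, then incubated at 22-24 °C and 80-90% RH. Compound was applied from 2% DMSO/acetone diluted in emulsified water.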

[7] = system: Parastagonospora nodorum; assay: Parastagonospora nodorum (PARANO) spore growth inhibition in liquid medium, 96-well microtiter plate, OD 600; type: cell-based; details: spore suspension in PDB liquid medium, 18° C., 5-6 days, OD at 600, read-out: control compared to the untreated check
Procedure, shortened: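 Read-out is percent growth inhibition from OD at 600 after 5-6 days at 18° C. Compounds, dissolved in DMSO, were diluted in potato dextrose broth and combined in equal volume with a 10^5 spores/ml suspension of PARANO.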

[8] = system: Colletotrichum capsici; assay: Colletotrichum capsici (anthracnose) mycelial radial growth on potato dextrose agar; type: cell-based; details: Colletotrichum truncatum, 168 h, 25° C., seven days, read-out: control compared to the untreated check
Procedure, shortened: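 Compounds in 0.3% DMSO were mixed into potato dextrose agar, and each plate was seeded with a 5 mm mycelial disc from an actively growing culture. Plates were incubated at 25° C and 60% relative humidity for seven days. Radial growth was compared with untreated control.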

[9] = system: Alternaria solani; assay: Alternaria solani (early blight of tomato/potato) mycelial radial growth on potato dextrose agar; type: cell-based; details: 168 h, 25° C., seven days, read-out: control compared to the untreated check
Description: (§1) The compounds were dissolved in 0.3% dimethyl sulfoxide and then added to potato dextrose agar medium just prior to dispensing it into petri dishes. 5 mL medium, with the compound in the desired concentration, was dispensed into 60 mm sterile petri-plates. After solidification, each plate was seeded with a 5 mm size mycelial disc taken from the periphery of an actively growing virulent culture plate. The plates were incubated in growth chambers at 25° C. temperature and 60% relative humidity for seven days and the radial growth was measured and compared to the one of the untreated control.

[10] = system: Pyricularia oryzae; assay: microbe, parasite or virus in culture; type: cell-based; details: 168 h, read-out: control compared to the untreated check
[11] = system: Corynespora cassiicola; assay: Corynespora cassiicola (leaf spot of tomato) mycelial radial growth on potato dextrose agar; type: cell-based; details: 168 h, 25° C., seven days, read-out: control compared to the untreated check
Description: as §1, with “70%” for “60%”

[12] = system: Venturia Inequalis; assay: Venturia inequalis (VENTIN) spore growth inhibition in liquid medium, 96-well microtiter plate, OD 600; type: cell-based; details: spore suspension in PDB liquid medium, 18° C., 15-18 days, OD at 600, read-out: control compared to the untreated check
Procedure, shortened: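 Venturia inequalis spores (10^5 spores/ml suspension) were grown in potato dextrose broth with test compounds dissolved in DMSO, mixing equal volumes of compound solution and spore suspension. Plates were incubated at 18 °C for 15–18 days. Growth was read as OD600 and converted to percent inhibition.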

[13] = system: Phytophthora infestans; assay: whole plant or invertebrate; type: in vivo, Phytophthora infestans on tomato; details: in Solanum lycopersicum, read-out: control (efficacy, disease severity) compared to the untreated check

COc1nc2c(ccn2C)cc1C(=O)NC(C)(Cc1ccccc1)CC(C)C (stereo not shown) [Compound 92, N-(2,4-dimethyl-1-phenylpentan-2-yl)-6-methoxy-1-methyl-1H-pyrrolo[2,3-b]pyridine-5-carboxamide]
≥ 70%: pest or weed control at 500 ppm [1] | pest or weed control at 500 ppm [2] | inhibition of growth at 300 ppm [3]

Cc1ccc(CC(C)(C)NC(=O)c2cnc3c(ccn3C)c2)cc1 [Compound 50, 1-methyl-N-(2-methyl-1-(p-tolyl)propan-2-yl)-1H-pyrrolo[2,3-b] pyridine-5-carboxamide]
≥ 70%: pest or weed control at 500 ppm [1] | inhibition of growth at 300 ppm [4] | inhibition of growth at 300 ppm [5] | pest or weed control at 500 ppm [6] | inhibition of growth at 300 ppm [7] | inhibition of growth at 300 ppm [8] | inhibition of growth at 300 ppm [9] | inhibition of growth at 300 ppm [10]

Cn1ccc2cc(C(=O)NC(C)(C)Cc3ccc(Cl)cc3)cnc21 [Compound 43, N-(1-(4-chlorophenyl)-2-methylpropan-2-yl)-1-methyl-1H-pyrrolo[2,3-b]pyridine-5-carboxamide]
≥ 70%: pest or weed control at 500 ppm [6] | inhibition of growth at 300 ppm [7] | inhibition of growth at 300 ppm [11] | inhibition of growth at 300 ppm [10]

CC(C)CC(C)(Cc1ccccc1)NC(=O)c1cnc2c(c1)CCCC2 (stereo not shown) [Compound 44, N-(2,4-dimethyl-1-phenylpentan-2-yl)-5,6,7,8-tetrahydroquinoline-3-carboxamide]
≥ 70%: pest or weed control at 500 ppm [1] | pest or weed control at 500 ppm [2] | inhibition of growth at 300 ppm [12] | pest or weed control at 500 ppm [6] | inhibition of growth at 300 ppm [7] | inhibition of growth at 300 ppm [8] | inhibition of growth at 300 ppm [10]

Cc1cc2cc(C(=O)NC(C)(C)Cc3ccccc3)cnc2n1C [Compound 99, 1,2-dimethyl-N-(2-methyl-1-phenylpropan-2-yl)-1H-pyrrolo[2,3-b] pyridine-5-carboxamide]
≥ 70%: pest or weed control at 500 ppm [1] | pest or weed control at 500 ppm [6] | inhibition of growth at 300 ppm [7] | inhibition of growth at 300 ppm [8] | inhibition of growth at 300 ppm [9] | inhibition of growth at 300 ppm [10]

Cc1cc(F)ccc1C(=O)OCC(C)(C)NC(=O)c1cnc2c(ccn2C)c1 [Compound 125, 2-methyl-2-(1-methyl-1H-pyrrolo[2,3-b]pyridine-5-carboxamido)propyl 4-fluoro-2-methylbenzoate]
≥ 70%: pest or weed control at 500 ppm [2] | pest or weed control at 500 ppm [6] | inhibition of growth at 300 ppm [11]

CC(C)(C)NC(=O)c1cnc2ccsc2c1 [Compound 107, N-(tert-butyl)thieno[3,2-b] pyridine-6-carboxamide]
≥ 70%: inhibition of growth at 300 ppm [12] | pest or weed control at 500 ppm [6] | inhibition of growth at 300 ppm [11]

CC(C)CC(C)(Cc1ccccc1)NC(=O)c1cnc2c(c1)OCCN2C (stereo not shown) [Compound 81, N-(2,4-dimethyl-1-phenylpentan-2-yl)-4-methyl-3,4-dihydro-2H-pyrido[3,2-b] [1,4]oxazine-7-carboxamide]
≥ 70%: pest or weed control at 500 ppm [1] | pest or weed control at 500 ppm [2] | inhibition of growth at 300 ppm [12] | inhibition of growth at 300 ppm [7] | inhibition of growth at 300 ppm [8] | pest or weed control at 500 ppm [13] | inhibition of growth at 300 ppm [10]

Cc1ccc(CC(C)(C)NC(=O)c2cnc3c(c2)cc(C)n3C)cc1 [Compound 102, 1,2-dimethyl-N-(2-methyl-1-(p-tolyl)propan-2-yl)-1H-pyrrolo[2,3-b]pyridine-5-carboxamide]
≥ 70%: pest or weed control at 500 ppm [1] | pest or weed control at 500 ppm [2] | inhibition of growth at 300 ppm [12] | pest or weed control at 500 ppm [6] | inhibition of growth at 300 ppm [7] | inhibition of growth at 300 ppm [8]

C=C(C)CC(C)(COc1ccccc1F)NC(=O)c1cnc2c(ccn2C)c1 (stereo not shown) [Compound 155, N-(1-(2-fluorophenoxy)-2,4-dimethylpent-4-en-2-yl)-1-methyl-1H-pyrrolo[2,3-b]pyridine-5-carboxamide]
≥ 70%: pest or weed control at 500 ppm [1] | inhibition of growth at 300 ppm [12] | pest or weed control at 500 ppm [6] | inhibition of growth at 300 ppm [7] | inhibition of growth at 300 ppm [8]

Cc1cc2cc(C(=O)NC(C)(C)Cc3ccc(Cl)cc3)cnc2n1C [Compound 101, N-(1-(4-chlorophenyl)-2-methylpropan-2-yl)-1,2-dimethyl-1H-pyrrolo[2,3-b]pyridine-5-carboxamide]
≥ 70%: pest or weed control at 500 ppm [1] | inhibition of growth at 300 ppm [4] | inhibition of growth at 300 ppm [5] | pest or weed control at 500 ppm [6] | inhibition of growth at 300 ppm [7] | inhibition of growth at 300 ppm [8]

CC(C)(Cc1ccccc1)NC(=O)c1cnc2c(c1)CCC2 [Compound 67, N-(2-methyl-1-phenylpropan-2-yl)-6,7-dihydro-5H-cyclopenta[b]pyridine-3-carboxamide]
≥ 70%: pest or weed control at 500 ppm [1] | pest or weed control at 500 ppm [2] | inhibition of growth at 300 ppm [12] | inhibition of growth at 300 ppm [4] | inhibition of growth at 300 ppm [5] | pest or weed control at 500 ppm [6] | inhibition of growth at 300 ppm [7] | pest or weed control at 500 ppm [13]

CC(c1ccccc1F)C(C)(C)NC(=O)c1cnc2c(c1)c(Br)cn2C (stereo not shown) [Compound 63, 3-bromo-N-(3-(2-fluorophenyl)-2-methylbutan-2-yl)-1-methyl-1H-pyrrolo[2,3-b]pyridine-5-carboxamide]
≥ 70%: pest or weed control at 500 ppm [1] | pest or weed control at 500 ppm [2] | inhibition of growth at 300 ppm [12] | inhibition of growth at 300 ppm [4] | inhibition of growth at 300 ppm [5] | pest or weed control at 500 ppm [6] | inhibition of growth at 300 ppm [7] | pest or weed control at 500 ppm [13] | inhibition of growth at 300 ppm [10]

CC(C)CC(C)(Cc1ccccc1)NC(=O)c1cnc2c(c1)CCC2 (stereo not shown) [Compound 62, N-(2,4-dimethyl-1-phenylpentan-2-yl)-6,7-dihydro-5H-cyclopenta[b]pyridine-3-carboxamide]
≥ 70%: pest or weed control at 500 ppm [1] | pest or weed control at 500 ppm [2] | inhibition of growth at 300 ppm [12] | pest or weed control at 500 ppm [6] | inhibition of growth at 300 ppm [8] | pest or weed control at 500 ppm [13]

Cc1cc2cc(C(=O)NC(C)(C)Cc3ccccc3F)cnc2n1C [Compound 103, N-(1-(2-fluorophenyl)-2-methylpropan-2-yl)-1,2-dimethyl-1H-pyrrolo[2,3-b]pyridine-5-carboxamide]
≥ 70%: pest or weed control at 500 ppm [1] | pest or weed control at 500 ppm [6] | inhibition of growth at 300 ppm [7] | inhibition of growth at 300 ppm [8]
